For assay [1], the system named is LNCaP-Vancouver prostate cells. Nature of the assay: In vitro LNCaP Vancouver prostate cell proliferation assay in lipid reduced medium. Type of assay: cell-based. The settings on record: read-out: pIC50 LNCaP_Vancouver prostate cell (converted).
Assay [2] has as its system A2780 ovarian cells. The assay is described as follows: A2780 ovarian cell proliferation assay in lipid reduced medium, without palmitate (MTT). Type of assay: cell-based. To be noted: Homo sapiens, A2780, 96 h; read-out: pIC50 A2780 Ovarian Cell, Without Palmitate (converted).
The subject of assay [3] is A2780 ovarian cells. The assay is described as follows: A2780 ovarian cell proliferation assay in lipid reduced medium, with palmitate (MTT). Type of assay: cell-based. The settings on record: Homo sapiens, A2780, 96 h; read-out: pIC50 A2780 Ovarian Cell, With Palmitate (converted). An outline of the steps: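 Seeded cells were switched next day to lipid-reduced serum, exposed to compound and 25 μM palmitate complexed with fatty-acid-free BSA, and incubated 96 h. Proliferation was then determined by MTT absorbance at 544 nm, with a best-fit curve of signal against concentration.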

The target in assay [4] is Fatty Acid Synthase Keto-reductase Domain (FASN KR) (Homo sapiens, UniProt P49327). The assay is described as follows: Fatty Acid Synthase keto-reductase domain (FASN KR) inhibition, NADPH oxidation at 340 nm.
Fatty Acid Synthase Keto-reductase Domain (FASN KR), sequence (P49327 whole entry, the tested form may be a part): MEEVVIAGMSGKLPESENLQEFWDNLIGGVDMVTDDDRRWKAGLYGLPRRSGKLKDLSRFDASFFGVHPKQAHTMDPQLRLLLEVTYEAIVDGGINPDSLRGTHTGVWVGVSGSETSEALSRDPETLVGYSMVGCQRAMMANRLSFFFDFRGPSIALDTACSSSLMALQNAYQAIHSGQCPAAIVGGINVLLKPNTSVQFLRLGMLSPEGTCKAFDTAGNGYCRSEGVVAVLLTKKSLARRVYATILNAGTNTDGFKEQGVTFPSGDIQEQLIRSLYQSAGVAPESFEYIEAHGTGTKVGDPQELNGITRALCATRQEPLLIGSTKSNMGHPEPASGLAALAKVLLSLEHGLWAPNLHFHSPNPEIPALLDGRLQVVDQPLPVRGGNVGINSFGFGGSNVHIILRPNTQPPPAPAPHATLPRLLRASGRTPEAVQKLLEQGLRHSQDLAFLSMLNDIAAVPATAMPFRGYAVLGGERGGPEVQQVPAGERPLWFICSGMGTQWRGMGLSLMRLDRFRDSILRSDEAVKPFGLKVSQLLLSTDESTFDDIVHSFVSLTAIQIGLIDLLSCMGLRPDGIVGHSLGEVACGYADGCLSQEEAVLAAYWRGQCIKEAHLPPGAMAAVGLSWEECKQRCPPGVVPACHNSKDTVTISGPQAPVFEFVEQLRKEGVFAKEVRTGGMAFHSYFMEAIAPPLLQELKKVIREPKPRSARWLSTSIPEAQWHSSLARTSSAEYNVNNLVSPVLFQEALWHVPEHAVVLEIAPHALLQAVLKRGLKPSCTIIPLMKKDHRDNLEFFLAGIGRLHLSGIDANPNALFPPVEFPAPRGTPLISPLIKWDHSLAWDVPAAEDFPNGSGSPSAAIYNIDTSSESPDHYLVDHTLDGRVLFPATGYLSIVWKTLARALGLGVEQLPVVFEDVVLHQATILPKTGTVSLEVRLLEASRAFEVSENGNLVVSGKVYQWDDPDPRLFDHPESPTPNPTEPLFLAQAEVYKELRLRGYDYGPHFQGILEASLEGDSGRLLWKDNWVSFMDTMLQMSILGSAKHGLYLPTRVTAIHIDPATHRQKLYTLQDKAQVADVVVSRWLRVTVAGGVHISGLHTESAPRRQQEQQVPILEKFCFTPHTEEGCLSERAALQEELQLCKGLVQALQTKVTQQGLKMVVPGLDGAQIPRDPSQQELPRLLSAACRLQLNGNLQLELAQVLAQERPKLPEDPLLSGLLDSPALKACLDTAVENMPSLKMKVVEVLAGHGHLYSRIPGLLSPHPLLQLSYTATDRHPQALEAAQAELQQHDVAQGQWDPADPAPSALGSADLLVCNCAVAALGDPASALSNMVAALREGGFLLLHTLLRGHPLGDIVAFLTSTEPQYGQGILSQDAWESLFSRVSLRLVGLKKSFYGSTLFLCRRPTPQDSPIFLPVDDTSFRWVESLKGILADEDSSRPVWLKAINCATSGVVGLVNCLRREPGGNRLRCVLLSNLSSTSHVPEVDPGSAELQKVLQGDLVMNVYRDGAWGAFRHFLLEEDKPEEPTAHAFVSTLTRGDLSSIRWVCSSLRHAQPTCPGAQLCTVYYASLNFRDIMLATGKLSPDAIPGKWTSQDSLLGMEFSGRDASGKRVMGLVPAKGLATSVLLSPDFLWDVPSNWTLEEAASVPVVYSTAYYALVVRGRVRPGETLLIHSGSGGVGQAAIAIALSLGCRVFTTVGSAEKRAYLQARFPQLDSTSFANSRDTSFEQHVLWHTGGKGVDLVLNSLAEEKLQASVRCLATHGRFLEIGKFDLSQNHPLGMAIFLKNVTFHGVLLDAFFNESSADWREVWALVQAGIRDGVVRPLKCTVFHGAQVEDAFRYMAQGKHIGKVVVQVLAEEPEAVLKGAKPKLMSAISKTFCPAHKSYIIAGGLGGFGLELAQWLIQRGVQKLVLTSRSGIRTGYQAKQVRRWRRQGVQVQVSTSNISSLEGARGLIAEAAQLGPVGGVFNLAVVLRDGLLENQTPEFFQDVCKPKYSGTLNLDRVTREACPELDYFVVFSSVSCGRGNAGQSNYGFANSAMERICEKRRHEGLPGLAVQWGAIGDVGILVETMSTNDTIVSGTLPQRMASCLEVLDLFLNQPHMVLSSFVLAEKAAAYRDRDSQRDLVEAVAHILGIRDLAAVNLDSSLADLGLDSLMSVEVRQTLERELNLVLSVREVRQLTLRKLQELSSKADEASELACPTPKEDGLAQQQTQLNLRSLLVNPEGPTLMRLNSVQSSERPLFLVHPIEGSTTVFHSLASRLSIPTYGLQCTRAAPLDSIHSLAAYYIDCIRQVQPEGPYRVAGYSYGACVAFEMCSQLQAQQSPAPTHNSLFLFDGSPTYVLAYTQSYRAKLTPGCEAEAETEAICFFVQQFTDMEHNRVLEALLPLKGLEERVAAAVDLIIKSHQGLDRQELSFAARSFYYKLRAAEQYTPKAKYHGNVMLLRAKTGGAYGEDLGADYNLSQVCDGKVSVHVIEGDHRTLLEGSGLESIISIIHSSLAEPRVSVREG
Experimental: After 20 minutes incubation at room temperature the plate was measured again (T2).
The decrease in absorbance was calculated as (Absorbance before incubation T1)−(Absorbance following incubation T2).
A plot of Controlmin versus test compound concentration was fitted to a 4-parameter logistic curve using a non-linear least squares regression method.
In assay [5] the target is T1, hFASN enzyme (full length) (Homo sapiens, UniProt P49327).
T1 construct: 10 μL hFASN enzyme (full length, 300 ng, purified in house); made in house
T1 sequence (P49327 whole entry): as the sequence (P49327 whole entry, the tested form may be a part) above
Nature of the assay: Fatty Acid Synthase (FASN) inhibition scintillation proximity assay. Type of assay: biochemical. The settings on record: for inhibition at 10 µM: read-out: Human FASN % inhibition @ 10 μM, 10 μM test compound; for IC50: read-out: Human FASN pIC50 (converted). An outline of the steps: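 Purified full-length hFASN (300 ng) converts ^3H-acetyl-CoA plus malonyl-CoA to ^3H-palmitate in 100 mM KH2PO4 pH 7.5, 1 mM DTT; compounds tested at 0.01–30 μM. Product captured on streptavidin imaging beads and read by LEADseeker at 610 nm after ≥24 h; 4-parameter logistic fit versus controls.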
A general note: Scintillation proximity formats need no separation of bound from free tracer.

Assay [6] concerns PC-3M-Luc-C6 prostate cells. Nature of the assay: In vitro PC-3M-Luc-C6 prostate cell proliferation assay in lipid reduced medium. Type of assay: cell-based. To be noted: 96 h, read-out: pIC50 PC-3M-Luc-C6 prostate cell (converted).

Bounds are passed on as bounds.

What is called inhibition is how much of the control response was suppressed.

For `O=C(C1CC1)N1CC(CN2C(=O)C3(CC3)N=C2c2ccc(-c3cccc(SC4CC4)c3)cc2F)C1` [compound 645, 6-{[1-(Cyclopropylcarbonyl)azetidin-3-yl]methyl}-5-[3′-(cyclopropylsulfanyl)-3-fluorobiphenyl-4-yl]-4,6-diazaspiro[2.4]hept-4-en-7-one], the IC50 in assay [1] was 3470 nM; in the assay on A2780 ovarian cells [2] it was around 2040 nM; with A2780 ovarian cells [3] it was above 10000 nM; in assay [4], 676 nM; in assay [5], 275 nM; in assay [6], 1740 nM. Besides, the inhibition at 10 µM in assay [5] worked out at 100%.
On to `O=C(C1CC1)N1CC[C@@H](CN2C(=O)C3(CC3)N=C2c2ccc(-c3cccc(S(=O)(=O)C4CC4)c3)cc2F)C1` [compound 647, 6-{[(3R)-1-(Cyclopropylcarbonyl)pyrrolidin-3-yl]methyl}-5-[3′-(cyclopropylsulfonyl)-3-fluorobiphenyl-4-yl]-4,6-diazaspiro[2.4]hept-4-en-7-one], for which the IC50 in assay [1] was 5130 nM; with A2780 ovarian cells [2], 1950 nM; in the assay with A2780 ovarian cells [3], above 10000 nM; in assay [4], 1380 nM; in assay [5], 631 nM; in assay [6], 1740 nM. Besides, the inhibition at 10 µM in assay [5] was determined as 91%.
As to `O=C(C1CC1)N1CC(CN2C(=O)C3(CC3)N=C2c2ccc(-c3nc4ccc(Cl)cc4o3)cc2F)C1` [compound 649, 5-[4-(6-Chloro-1,3-benzoxazol-2-yl)-2-fluorophenyl]-6-{[1-(cyclopropylcarbonyl)azetidin-3-yl]methyl}-4,6-diazaspiro[2.4]hept-4-en-7-one], the IC50 in assay [1] is 1740 nM; with A2780 ovarian cells [2], 200 nM; in the assay with A2780 ovarian cells [3], 7410 nM; in assay [4], 372 nM; in assay [5], 158 nM; in assay [6], 437 nM. Further, the inhibition at 10 µM in assay [5] came out at 97%.
For `O=C(C1CC1)N1CC[C@@H](CN2C(=O)C3(CCOCC3)N=C2c2ccc(-c3ccc4cccnc4c3)cc2)C1` [compound 661, 3-{[(3R)-1-(Cyclopropylcarbonyl)pyrrolidin-3-yl]methyl}-2-(4-quinolin-7-ylphenyl)-8-oxa-1,3-diazaspiro[4.5]dec-1-en-4-one], the IC50 in assay [1] is 191 nM; with A2780 ovarian cells [2], 42.7 nM; in the assay with A2780 ovarian cells [3], above 10000 nM; in assay [4] it was 132 nM; in assay [5], 58.9 nM; in assay [6] it was around 79.4 nM. Moreover, the inhibition at 10 µM in assay [5] was determined as 95%.
`CC(O)C(=O)N1CC[C@@H](CN2C(=O)C3(CCOCC3)N=C2c2ccc(-c3ccc4cccnc4c3)cc2)C1` (stereo partly drawn) [compound 662, 3-{[(3R)-1-(2-Hydroxypropanoyl)pyrrolidin-3-yl]methyl}-2-(4-quinolin-7-ylphenyl)-8-oxa-1,3-diazaspiro[4.5]dec-1-en-4-one]: the IC50 in assay [1] is 2880 nM; with A2780 ovarian cells [2], 457 nM; with A2780 ovarian cells [3], above 10000 nM; in assay [4], 617 nM; in assay [5], 302 nM; in assay [6], 708 nM. The inhibition at 10 µM in assay [5] was determined as 98%.
As for `O=C(N1CCCC1)N1CC[C@@H](CN2C(=O)C3(CCOCC3)N=C2c2ccc(-c3ccc4cccnc4c3)cc2)C1` [compound 665, 3-{[(3S)-1-(Pyrrolidin-1-ylcarbonyl)pyrrolidin-3-yl]methyl}-2-(4-quinolin-7-ylphenyl)-8-oxa-1,3-diazaspiro[4.5]dec-1-en-4-one], the IC50 is 1230 nM in assay [1]; 550 nM in the assay on A2780 ovarian cells [2]; above 10000 nM in the assay on A2780 ovarian cells [3]; 631 nM in assay [4]; 324 nM in assay [5]; 794 nM in assay [6]. In addition, the inhibition at 10 µM in assay [5] worked out at 94%.

The values are drawn from patent US10077261B2, “Imidazolin-5-one derivative useful as FASN inhibitors for the treatment of cancer” (Janssen Pharmaceutica NV, priority 2012, dated 2018).
